Target: T1, CDK7/Cyclin H/MNAT1 (Homo sapiens, UniProt P50613)
T1 construct: purchased Invitrogen PR6749B
Experiment: Enzymatic assay for CDK7 (FRET based LANCE Ultra kinase assay)
Format: biochemical
Settings: CDK7 over CDK1
How it was run: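 LANCE Ultra TR-FRET kinase assay using a ULight-labeled peptide substrate and a Eu-labeled anti-phospho antibody, with ATP at its Km. Purified CDK/cyclin complex was added to compound after brief centrifugation.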

T1 sequence (P50613 whole entry): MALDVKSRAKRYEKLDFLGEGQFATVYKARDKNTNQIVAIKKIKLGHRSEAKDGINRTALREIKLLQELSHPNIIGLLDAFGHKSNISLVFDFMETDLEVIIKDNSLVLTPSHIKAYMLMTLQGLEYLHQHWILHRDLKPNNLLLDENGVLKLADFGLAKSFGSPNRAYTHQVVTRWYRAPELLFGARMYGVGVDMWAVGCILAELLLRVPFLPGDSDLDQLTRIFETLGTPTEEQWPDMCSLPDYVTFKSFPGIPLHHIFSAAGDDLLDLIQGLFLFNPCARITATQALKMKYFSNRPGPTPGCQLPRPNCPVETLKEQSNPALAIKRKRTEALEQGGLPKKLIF
T1 sequence (P51946 whole entry partner): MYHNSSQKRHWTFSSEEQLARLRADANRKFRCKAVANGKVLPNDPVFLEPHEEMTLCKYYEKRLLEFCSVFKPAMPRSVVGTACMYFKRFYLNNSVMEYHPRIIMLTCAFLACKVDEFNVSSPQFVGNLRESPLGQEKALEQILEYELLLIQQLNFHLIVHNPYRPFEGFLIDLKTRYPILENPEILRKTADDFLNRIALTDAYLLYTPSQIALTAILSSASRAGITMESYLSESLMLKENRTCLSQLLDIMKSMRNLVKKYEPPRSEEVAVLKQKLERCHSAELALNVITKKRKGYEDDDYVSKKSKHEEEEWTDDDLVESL
T1 sequence (P51948 whole entry partner): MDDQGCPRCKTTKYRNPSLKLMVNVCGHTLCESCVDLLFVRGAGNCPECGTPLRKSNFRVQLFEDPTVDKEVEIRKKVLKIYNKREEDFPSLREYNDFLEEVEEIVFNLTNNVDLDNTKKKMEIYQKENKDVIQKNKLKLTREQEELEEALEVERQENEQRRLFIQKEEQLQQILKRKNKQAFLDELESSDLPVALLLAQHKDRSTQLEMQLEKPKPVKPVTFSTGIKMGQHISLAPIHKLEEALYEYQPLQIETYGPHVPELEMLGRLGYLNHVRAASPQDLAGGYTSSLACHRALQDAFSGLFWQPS

Compound | CDK1/CDK7: Selectivity of CDK7 inhibition over CDK1 inhibition
CC(C)c1cnn2c(NCc3ccccc3-c3cc4ccccc4[nH]3)nc(N3CCC(N)CC3)nc12 [Compound 102] | B (B=less than 200 fold, but greater than 20 fold)
CC(C)c1cnn2c(NCc3ccccc3-n3cc4ccc(C(F)(F)F)cc4n3)nc(N3CCC(N)CC3)nc12 [Compound 104] | A (A=greater than 200 fold)
CC(C)c1cnn2c(NCc3ccccc3-n3cc4cc(F)ccc4n3)nc(N3CCC(N)CC3)nc12 [Compound 108] | B (B=less than 200 fold, but greater than 20 fold)
CC(C)c1cnn2c(NCc3ccccc3-n3cccn3)nc(-c3cccc(C(=O)N4CCC(N)CC4)c3)nc12 [Compound 171] | A (A=greater than 200 fold)

Same assay, conditions: CDK7 over CDK2

Compound | CDK2/CDK7: Selectivity of CDK7 inhibition over CDK2 inhibition
CC(C)c1cnn2c(NCc3ccccc3-c3cc4ccccc4[nH]3)nc(N3CCC(N)CC3)nc12 [Compound 102] | B (B=less than 200 fold, but greater than 20 fold)
CC(C)c1cnn2c(NCc3ccccc3-n3cc4ccc(C(F)(F)F)cc4n3)nc(N3CCC(N)CC3)nc12 [Compound 104] | A (A=greater than 200 fold)
CC(C)c1cnn2c(NCc3ccccc3-n3cc4cc(F)ccc4n3)nc(N3CCC(N)CC3)nc12 [Compound 108] | B (B=less than 200 fold, but greater than 20 fold)
CC(C)c1cnn2c(NCc3ccccc3-n3cccn3)nc(-c3cccc(C(=O)N4CCC(N)CC4)c3)nc12 [Compound 171] | A (A=greater than 200 fold)

Same assay, conditions: CDK7 over CDK5

Compound | CDK5/CDK7: Selectivity of CDK7 inhibition over CDK5 inhibition
CC(C)c1cnn2c(NCc3ccccc3-c3cc4ccccc4[nH]3)nc(N3CCC(N)CC3)nc12 [Compound 102] | C (C=less than 20 fold)
CC(C)c1cnn2c(NCc3ccccc3-n3cc4ccc(C(F)(F)F)cc4n3)nc(N3CCC(N)CC3)nc12 [Compound 104] | B (B=less than 200 fold, but greater than 20 fold)
CC(C)c1cnn2c(NCc3ccccc3-n3cc4cc(F)ccc4n3)nc(N3CCC(N)CC3)nc12 [Compound 108] | B (B=less than 200 fold, but greater than 20 fold)
CC(C)c1cnn2c(NCc3ccccc3-n3cccn3)nc(-c3cccc(C(=O)N4CCC(N)CC4)c3)nc12 [Compound 171] | A (A=greater than 200 fold)

Same assay, conditions: read-out: CDK7 enzymatic activity (IC50 range)

IC50 [nM] | Compound
< 100 | CC(C)c1cnn2c(NCc3ccccc3-c3cc4ccccc4[nH]3)nc(N3CCC(N)CC3)nc12 [Compound 102]
< 100 | CC(C)c1cnn2c(NCc3ccccc3-n3cc4ccc(C(F)(F)F)cc4n3)nc(N3CCC(N)CC3)nc12 [Compound 104]
< 100 | CC(C)c1cnn2c(NCc3ccccc3-n3cc4cc(F)ccc4n3)nc(N3CCC(N)CC3)nc12 [Compound 108]
< 100 | CC(C)c1cnn2c(NCc3ccccc3-n3cccn3)nc(-c3cccc(C(=O)N4CCC(N)CC4)c3)nc12 [Compound 171]

Target: T2, CDK2/Cyclin A (Homo sapiens, UniProt P24941)
T2 construct: purchased Invitrogen PV6290
Experiment: Enzymatic assay for CDK2 (FRET based LANCE Ultra kinase assay)
Format: biochemical
Settings: read-out: CDK2 enzymatic activity (IC50 range)
How it was run: (§1)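 TR-FRET (LANCE Ultra) kinase assay at ATP Km, ULight-MBP peptide substrate (68 nM), 8-dose 4-fold compound series in DMSO. Enzymes: […]; 60 min at 23° C., stopped with EDTA plus Eu-anti-phospho-MBP antibody, read 665/615 nm after 60 min.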

IC50 [nM] | Compound
100 to 1000 | CC(C)c1cnn2c(NCc3ccccc3-c3cc4ccccc4[nH]3)nc(N3CCC(N)CC3)nc12 [Compound 102]
> 1000 | CC(C)c1cnn2c(NCc3ccccc3-n3cc4ccc(C(F)(F)F)cc4n3)nc(N3CCC(N)CC3)nc12 [Compound 104]
100 to 1000 | CC(C)c1cnn2c(NCc3ccccc3-n3cc4cc(F)ccc4n3)nc(N3CCC(N)CC3)nc12 [Compound 108]
> 1000 | CC(C)c1cnn2c(NCc3ccccc3-n3cccn3)nc(-c3cccc(C(=O)N4CCC(N)CC4)c3)nc12 [Compound 171]

Target: T3, CDK5/p25 (Homo sapiens, UniProt Q00535)
T3 construct: purchased Invitrogen PR8543B
T3 sequence (Q00535 whole entry): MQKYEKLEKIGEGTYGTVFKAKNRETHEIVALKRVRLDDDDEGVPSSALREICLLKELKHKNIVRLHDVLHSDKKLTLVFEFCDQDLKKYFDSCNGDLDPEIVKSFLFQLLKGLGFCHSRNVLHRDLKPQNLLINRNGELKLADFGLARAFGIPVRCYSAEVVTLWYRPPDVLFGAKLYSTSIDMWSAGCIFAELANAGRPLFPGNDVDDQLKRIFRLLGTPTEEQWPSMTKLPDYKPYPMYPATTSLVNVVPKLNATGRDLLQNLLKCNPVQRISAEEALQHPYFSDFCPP
T3 sequence (Q15078 99-307 partner limits assumed): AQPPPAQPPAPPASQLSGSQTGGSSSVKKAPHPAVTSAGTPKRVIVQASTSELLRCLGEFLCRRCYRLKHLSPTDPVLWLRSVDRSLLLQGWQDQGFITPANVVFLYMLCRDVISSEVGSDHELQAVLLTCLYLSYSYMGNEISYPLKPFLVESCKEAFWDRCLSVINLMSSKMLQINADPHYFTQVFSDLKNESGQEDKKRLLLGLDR
Experiment: Enzymatic assay for CDK5 (FRET based LANCE Ultra kinase assay)
Format: biochemical
Settings: read-out: CDK5 enzymatic activity (IC50 range)
How it was run: as §1

IC50 [nM] | Compound
< 100 | CC(C)c1cnn2c(NCc3ccccc3-c3cc4ccccc4[nH]3)nc(N3CCC(N)CC3)nc12 [Compound 102]
100 to 1000 | CC(C)c1cnn2c(NCc3ccccc3-n3cc4ccc(C(F)(F)F)cc4n3)nc(N3CCC(N)CC3)nc12 [Compound 104]
100 to 1000 | CC(C)c1cnn2c(NCc3ccccc3-n3cc4cc(F)ccc4n3)nc(N3CCC(N)CC3)nc12 [Compound 108]
> 1000 | CC(C)c1cnn2c(NCc3ccccc3-n3cccn3)nc(-c3cccc(C(=O)N4CCC(N)CC4)c3)nc12 [Compound 171]

Tested on: MOLT-4
Experiment: Cellular MOLT-4 viability assay (CellTiter-Glo, 72 hours)
Format: cell-based
Settings: Homo sapiens, MOLT4 viability assay
How it was run: (§2)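 Cells were plated at line-specific densities and exposed to compound for 72 hours at 37 °C, 5% CO2, with DMSO-only wells as control (final DMSO below 0.1%). Viability was measured by CellTiter-Glo luminescence in duplicate.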

IC50 [nM] | Compound
1000 to 10000 | CC(C)c1cnn2c(NCc3ccccc3-n3cc4ccc(C(F)(F)F)cc4n3)nc(N3CCC(N)CC3)nc12 [Compound 104]
1000 to 10000 | CC(C)c1cnn2c(NCc3ccccc3-n3cc4cc(F)ccc4n3)nc(N3CCC(N)CC3)nc12 [Compound 108]
1000 to 10000 | CC(C)c1cnn2c(NCc3ccccc3-n3cccn3)nc(-c3cccc(C(=O)N4CCC(N)CC4)c3)nc12 [Compound 171]

Tested on: A2780
Experiment: Cellular A2780 viability assay (CellTiter-Glo, 72 hours)
Format: cell-based
Settings: Homo sapiens
How it was run: (§3)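 Cells seeded at 1×10^4/well (MM.1S), 5×10^3 (OVCAR-3) or 1×10^3 (A2780), grown in RPMI-1640 with 10% FBS. After 24 h, compound added at 0.0015–10 uM, final DMSO below 0.1%, for 72 h at 37° C. Viability read by CellTiter-Glo luminescence in duplicate, with curve fitting.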

IC50 [nM] | Compound
≤ 1000 | CC(C)c1cnn2c(NCc3ccccc3-c3cc4ccccc4[nH]3)nc(N3CCC(N)CC3)nc12 [Compound 102]

Tested on: MM.1S
Experiment: Cellular MM.1S viability assay (CellTiter-Glo, 72 hours)
Format: cell-based
Settings: Homo sapiens, MM1.S
How it was run: as §3

IC50 [nM] | Compound
≤ 1000 | CC(C)c1cnn2c(NCc3ccccc3-c3cc4ccccc4[nH]3)nc(N3CCC(N)CC3)nc12 [Compound 102]
≤ 1000 | CC(C)c1cnn2c(NCc3ccccc3-n3cc4ccc(C(F)(F)F)cc4n3)nc(N3CCC(N)CC3)nc12 [Compound 104]
≤ 1000 | CC(C)c1cnn2c(NCc3ccccc3-n3cc4cc(F)ccc4n3)nc(N3CCC(N)CC3)nc12 [Compound 108]
≤ 1000 | CC(C)c1cnn2c(NCc3ccccc3-n3cccn3)nc(-c3cccc(C(=O)N4CCC(N)CC4)c3)nc12 [Compound 171]

Target: T4, CDK1/Cyclin B (Homo sapiens, UniProt P06493)
T4 construct: purchased Invitrogen PR4768C
T4 sequence (P06493 whole entry): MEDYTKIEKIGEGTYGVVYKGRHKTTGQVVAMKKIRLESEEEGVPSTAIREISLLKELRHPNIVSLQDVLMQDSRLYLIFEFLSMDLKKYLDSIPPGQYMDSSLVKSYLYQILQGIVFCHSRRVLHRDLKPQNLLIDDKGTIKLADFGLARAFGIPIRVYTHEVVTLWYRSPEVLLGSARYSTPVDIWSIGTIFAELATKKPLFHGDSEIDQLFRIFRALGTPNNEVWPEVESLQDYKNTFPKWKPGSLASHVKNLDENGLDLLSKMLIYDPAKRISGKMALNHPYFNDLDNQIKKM
T4 sequence (P14635 whole entry partner): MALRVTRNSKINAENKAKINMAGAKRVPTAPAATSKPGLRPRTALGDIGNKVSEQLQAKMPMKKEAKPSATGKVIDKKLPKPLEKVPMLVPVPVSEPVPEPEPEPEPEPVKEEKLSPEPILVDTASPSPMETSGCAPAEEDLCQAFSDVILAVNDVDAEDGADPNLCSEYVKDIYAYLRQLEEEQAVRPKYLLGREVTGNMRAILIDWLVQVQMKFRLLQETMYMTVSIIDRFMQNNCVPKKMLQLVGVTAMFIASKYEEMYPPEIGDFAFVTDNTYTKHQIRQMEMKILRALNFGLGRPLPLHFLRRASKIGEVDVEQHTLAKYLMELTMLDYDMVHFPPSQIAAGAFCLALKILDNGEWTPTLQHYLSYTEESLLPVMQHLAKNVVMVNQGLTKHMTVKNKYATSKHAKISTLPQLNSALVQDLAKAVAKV
Experiment: Enzymatic assay for CDK1 (FRET based LANCE Ultra kinase assay)
Format: biochemical
Settings: read-out: CDK1 enzymatic activity (IC50 range)
How it was run: as §1

IC50 [nM] | Compound
100 to 1000 | CC(C)c1cnn2c(NCc3ccccc3-c3cc4ccccc4[nH]3)nc(N3CCC(N)CC3)nc12 [Compound 102]
> 1000 | CC(C)c1cnn2c(NCc3ccccc3-n3cc4ccc(C(F)(F)F)cc4n3)nc(N3CCC(N)CC3)nc12 [Compound 104]
100 to 1000 | CC(C)c1cnn2c(NCc3ccccc3-n3cc4cc(F)ccc4n3)nc(N3CCC(N)CC3)nc12 [Compound 108]
> 1000 | CC(C)c1cnn2c(NCc3ccccc3-n3cccn3)nc(-c3cccc(C(=O)N4CCC(N)CC4)c3)nc12 [Compound 171]

Tested on: HCT116
Experiment: Cellular HCT116 viability assay (CellTiter-Glo, 72 hours)
Format: cell-based
Settings: Homo sapiens, HCT-116
How it was run: as §2

IC50 [nM] | Compound
< 1000 | CC(C)c1cnn2c(NCc3ccccc3-c3cc4ccccc4[nH]3)nc(N3CCC(N)CC3)nc12 [Compound 102]
< 1000 | CC(C)c1cnn2c(NCc3ccccc3-n3cc4ccc(C(F)(F)F)cc4n3)nc(N3CCC(N)CC3)nc12 [Compound 104]
< 1000 | CC(C)c1cnn2c(NCc3ccccc3-n3cc4cc(F)ccc4n3)nc(N3CCC(N)CC3)nc12 [Compound 108]
< 1000 | CC(C)c1cnn2c(NCc3ccccc3-n3cccn3)nc(-c3cccc(C(=O)N4CCC(N)CC4)c3)nc12 [Compound 171]

Tested on: RPMI-8226
Experiment: Cellular RPMI-8226 viability assay (CellTiter-Glo, 72 hours)
Format: cell-based
Settings: Homo sapiens
How it was run: as §2

IC50 [nM] | Compound
< 1000 | CC(C)c1cnn2c(NCc3ccccc3-c3cc4ccccc4[nH]3)nc(N3CCC(N)CC3)nc12 [Compound 102]
< 1000 | CC(C)c1cnn2c(NCc3ccccc3-n3cc4ccc(C(F)(F)F)cc4n3)nc(N3CCC(N)CC3)nc12 [Compound 104]
< 1000 | CC(C)c1cnn2c(NCc3ccccc3-n3cc4cc(F)ccc4n3)nc(N3CCC(N)CC3)nc12 [Compound 108]
1000 to 10000 | CC(C)c1cnn2c(NCc3ccccc3-n3cccn3)nc(-c3cccc(C(=O)N4CCC(N)CC4)c3)nc12 [Compound 171]

Tested on: H460
Experiment: Cellular H460 viability assay (CellTiter-Glo, 72 hours)
Format: cell-based
Settings: Homo sapiens, NCI-H460
How it was run: as §2

IC50 [nM] | Compound
< 1000 | CC(C)c1cnn2c(NCc3ccccc3-c3cc4ccccc4[nH]3)nc(N3CCC(N)CC3)nc12 [Compound 102]
< 1000 | CC(C)c1cnn2c(NCc3ccccc3-n3cc4ccc(C(F)(F)F)cc4n3)nc(N3CCC(N)CC3)nc12 [Compound 104]
< 1000 | CC(C)c1cnn2c(NCc3ccccc3-n3cc4cc(F)ccc4n3)nc(N3CCC(N)CC3)nc12 [Compound 108]
< 1000 | CC(C)c1cnn2c(NCc3ccccc3-n3cccn3)nc(-c3cccc(C(=O)N4CCC(N)CC4)c3)nc12 [Compound 171]

Tested on: MV4-11
Experiment: Cellular MV4-11 viability assay (CellTiter-Glo, 72 hours)
Format: cell-based
Settings: Homo sapiens
How it was run: as §2

IC50 [nM] | Compound
< 1000 | CC(C)c1cnn2c(NCc3ccccc3-c3cc4ccccc4[nH]3)nc(N3CCC(N)CC3)nc12 [Compound 102]
< 1000 | CC(C)c1cnn2c(NCc3ccccc3-n3cc4ccc(C(F)(F)F)cc4n3)nc(N3CCC(N)CC3)nc12 [Compound 104]
< 1000 | CC(C)c1cnn2c(NCc3ccccc3-n3cc4cc(F)ccc4n3)nc(N3CCC(N)CC3)nc12 [Compound 108]
< 1000 | CC(C)c1cnn2c(NCc3ccccc3-n3cccn3)nc(-c3cccc(C(=O)N4CCC(N)CC4)c3)nc12 [Compound 171]
